Among the data in PubChem BioAssay (NCI) are TGI values, retold here.

Some test systems named below: HCT-15 colon; HOP-92 NSCLC; IGROV1 ovarian; KM12 colon; NCI-H226 lung; NCI-H23 lung; OVCAR-3 ovarian; OVCAR-8 ovarian; SF-268 CNS; SK-MEL-28 melanoma; SK-MEL-5 melanoma; SR leukemia; U251 CNS; UACC-62 melanoma; SK-OV-3 ovarian; DU-145 prostate; MCF7 breast; MDA-MB-231 breast.
What all share (test): DTP human tumour cell line panel, 48 h

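Dose response: 5 concentrations. Exposure: 48 h. Format: 96-well plates. Endpoint: linear interpolation; highest concentration if not reached. TGI denotes the concentration required for complete inhibition of growth.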

A word on the TGI: it is the concentration at which net growth stops. Higher therefore signals less potent growth arrest. For the compound `CC[N+](CC)(CC)Cc1cn(S(=O)(=O)c2ccccc2)c2ccccc12`, the TGI with HCT-15 colon, in the assay on HOP-92 NSCLC, with IGROV1 ovarian, with KM12 colon, with NCI-H226 lung and in the assay on NCI-H23 lung was over 100 µM in each case. Further, the TGI in the assay on OVCAR-3 ovarian, in the assay on OVCAR-8 ovarian, in the assay with SF-268 CNS, with SK-MEL-28 melanoma, with SK-MEL-5 melanoma and in the assay with SR leukemia was over 100 µM each time. Further, the TGI with U251 CNS and with UACC-62 melanoma was over 100 µM in each case.

Turning to `NC(=S)Nc1nnc(-c2ccc(-c3nnc(NC(N)=S)o3)cc2)o1`, the TGI in the assay on HCT-15 colon, in the assay with HOP-92 NSCLC, with IGROV1 ovarian, in the assay with KM12 colon, in the assay on NCI-H226 lung and with NCI-H23 lung was over 100 µM each time. The TGI with OVCAR-3 ovarian, in the assay on OVCAR-8 ovarian, in the assay with SF-268 CNS, in the assay with SK-MEL-28 melanoma, in the assay with SK-MEL-5 melanoma and in the assay with SK-OV-3 ovarian was over 100 µM in each case. The concentration for total growth inhibition (TGI) in the assay on U251 CNS and with UACC-62 melanoma was over 100 µM throughout.

Consider `O=C(/C=C/c1c(O)c2ccccc2[nH]c1=O)CC(=O)C(=O)Nc1cccc(O)c1`, for which the TGI in the assay with DU-145 prostate, in the assay with HCT-15 colon, in the assay with HOP-92 NSCLC, in the assay with IGROV1 ovarian, in the assay with KM12 colon and in the assay on MCF7 breast was over 100 µM in each case. In addition, the TGI in the assay with MDA-MB-231 breast, with NCI-H226 lung, with NCI-H23 lung, in the assay with OVCAR-3 ovarian, in the assay on OVCAR-8 ovarian and with SF-268 CNS was over 100 µM each time. Further, the TGI in the assay with SK-MEL-28 melanoma, in the assay on SK-MEL-5 melanoma, with SK-OV-3 ovarian, in the assay with U251 CNS and in the assay on UACC-62 melanoma was over 100 µM in each case.

Take `COc1ccc2c(c1)CC1NC2Cc2ccccc21` (stereo unspecified): the TGI in the assay on HCT-15 colon, with IGROV1 ovarian, in the assay with KM12 colon, in the assay on NCI-H23 lung, in the assay on OVCAR-3 ovarian and in the assay on OVCAR-8 ovarian was over 100 µM throughout. Besides, the TGI in the assay with SF-268 CNS, with SK-MEL-28 melanoma, in the assay with SK-MEL-5 melanoma, with SK-OV-3 ovarian, with U251 CNS and with UACC-62 melanoma was over 100 µM in each case.

`C1=Cc2nc1c(-c1ccccc1)c1ccc([n-]1)c(-c1ccccc1)c1nc(c(-c3ccccc3)c3ccc([n-]3)c2-c2ccccc2)C=C1.[Zn+2]`: the TGI with HCT-15 colon, in the assay with HOP-92 NSCLC, with IGROV1 ovarian, in the assay with KM12 colon, in the assay on NCI-H226 lung and in the assay on NCI-H23 lung was over 100 µM in each case. The TGI in the assay on OVCAR-3 ovarian, with OVCAR-8 ovarian, with SF-268 CNS, with SK-MEL-28 melanoma, in the assay with SK-MEL-5 melanoma and in the assay on SK-OV-3 ovarian was over 100 µM each time. The TGI in the assay on U251 CNS and in the assay with UACC-62 melanoma was over 100 µM throughout.

Take `CN(C)c1cccc(-c2cc(=O)c3cc4c(cc3[nH]2)OCO4)c1`: the TGI in the assay with HCT-15 colon is over 90 µM; with HOP-92 NSCLC, over 100 µM; with IGROV1 ovarian it was over 47.5 µM; in the assay with KM12 colon, 1.46 µM; with NCI-H226 lung, 1.32 µM; in the assay with OVCAR-3 ovarian, 0.0575 µM. Further, the TGI was 3.65 µM with OVCAR-8 ovarian; 31.4 µM in the assay on SF-268 CNS; over 100 µM in the assay with SK-MEL-28 melanoma; 2.83 µM in the assay with SK-MEL-5 melanoma; 0.932 µM in the assay with SK-OV-3 ovarian; over 100 µM in the assay on SR leukemia. Moreover, the TGI was 3.95 µM in the assay with U251 CNS and over 100 µM in the assay with UACC-62 melanoma.

Regarding `BrC12C3C4C5C(C(C43)C13OCCO3)C52` (stereo unspecified), the TGI in the assay on HOP-92 NSCLC, in the assay on IGROV1 ovarian, with KM12 colon, in the assay on NCI-H23 lung, with OVCAR-3 ovarian and in the assay on OVCAR-8 ovarian was over 100 µM in each case. Also, the TGI with SF-268 CNS, with SK-MEL-28 melanoma, with SK-MEL-5 melanoma, in the assay with SK-OV-3 ovarian and in the assay on U251 CNS was over 100 µM throughout.

Consider `c1ccc2c(NCCCCCCCCNc3cccc4ccccc34)cccc2c1`, for which the TGI in the assay with HCT-15 colon was 84.7 µM; in the assay with HOP-92 NSCLC, 35.7 µM; in the assay with IGROV1 ovarian, over 100 µM; with KM12 colon, over 100 µM; with NCI-H226 lung, over 100 µM; in the assay on NCI-H23 lung it was 65 µM. Besides, the TGI in the assay on OVCAR-3 ovarian is over 100 µM; in the assay with OVCAR-8 ovarian it was 54.8 µM; in the assay on SF-268 CNS, over 100 µM; in the assay with SK-MEL-28 melanoma, 40.3 µM; with SK-MEL-5 melanoma, over 10 µM; in the assay on SK-OV-3 ovarian, over 100 µM. Further, the concentration for total growth inhibition (TGI) is over 100 µM in the assay on U251 CNS and 45.9 µM in the assay on UACC-62 melanoma.

Consider `Cc1nc2c(s/c(=N\N)n2-c2ccccc2)c(=O)[nH]1`, for which the TGI with HCT-15 colon, with HOP-92 NSCLC, in the assay on IGROV1 ovarian, with KM12 colon, in the assay on NCI-H226 lung and with NCI-H23 lung was over 100 µM throughout. Further, the TGI in the assay on OVCAR-3 ovarian, with OVCAR-8 ovarian, in the assay on SF-268 CNS, with SK-MEL-28 melanoma, with SK-MEL-5 melanoma and in the assay with SK-OV-3 ovarian was over 100 µM in each case. For the same compound, the TGI with SR leukemia, in the assay with U251 CNS and in the assay with UACC-62 melanoma was over 100 µM each time.

`Cc1c(C(=O)Nc2ccc(Cl)c(C(F)(F)F)c2)oc2cc(O)ccc2/c1=N\NC(N)=S`: the TGI with HCT-15 colon, with IGROV1 ovarian, in the assay with KM12 colon, with NCI-H226 lung, in the assay on NCI-H23 lung and in the assay with OVCAR-3 ovarian was over 100 µM each time. The total growth inhibition concentration (TGI) in the assay on OVCAR-8 ovarian, in the assay with SF-268 CNS, with SK-MEL-28 melanoma, in the assay on SK-MEL-5 melanoma, with SK-OV-3 ovarian and in the assay on SR leukemia was over 100 µM throughout. The TGI with U251 CNS and in the assay with UACC-62 melanoma was over 100 µM throughout.

In the case of `CC1C(c2ccccc2)=CCON1c1ccccc1` (stereo unspecified), the TGI with HCT-15 colon, in the assay with IGROV1 ovarian, in the assay with KM12 colon, in the assay on NCI-H226 lung, with NCI-H23 lung and in the assay on OVCAR-3 ovarian was over 100 µM throughout. Further, the concentration for total growth inhibition (TGI) in the assay on OVCAR-8 ovarian, in the assay with SF-268 CNS, in the assay on SK-MEL-28 melanoma, in the assay with SK-MEL-5 melanoma, in the assay with SK-OV-3 ovarian and in the assay on SR leukemia was over 100 µM in each case. Besides, the TGI in the assay on U251 CNS and in the assay on UACC-62 melanoma was over 100 µM each time.

`CC(C)C1=CC(=O)C(C)(C2=NC(C)(C)CO2)c2ccccc21` (stereo unspecified): the TGI with HCT-15 colon, in the assay on HOP-92 NSCLC, with IGROV1 ovarian, with KM12 colon, in the assay on NCI-H226 lung and in the assay on NCI-H23 lung was over 100 µM in each case. Further, the concentration for total growth inhibition (TGI) in the assay on OVCAR-3 ovarian, in the assay on OVCAR-8 ovarian, in the assay with SF-268 CNS, in the assay on SK-MEL-28 melanoma, in the assay with SK-MEL-5 melanoma and in the assay with SK-OV-3 ovarian was over 100 µM throughout. For the same compound, the total growth inhibition concentration (TGI) in the assay with SR leukemia, in the assay on U251 CNS and in the assay on UACC-62 melanoma was over 100 µM each time.

With `Cc1cccc(NC(=O)CSc2nnc(Cc3ccccc3)o2)c1`, the TGI with HCT-15 colon, in the assay with IGROV1 ovarian, in the assay on KM12 colon, with NCI-H226 lung, in the assay on NCI-H23 lung and in the assay on OVCAR-3 ovarian was over 100 µM each time. Further, the TGI in the assay with OVCAR-8 ovarian, in the assay on SF-268 CNS, in the assay with SK-MEL-28 melanoma, in the assay on SK-MEL-5 melanoma, in the assay on SK-OV-3 ovarian and in the assay on U251 CNS was over 100 µM each time. In the assay with UACC-62 melanoma, this compound showed a TGI of over 100 µM.

Regarding `O=C(/C=C(\O)C(=O)O)/C=C(\O)c1ccccc1Cl`, the TGI in the assay with HCT-15 colon, in the assay on HOP-92 NSCLC, in the assay on IGROV1 ovarian, in the assay with KM12 colon, with NCI-H226 lung and in the assay on NCI-H23 lung was over 100 µM throughout. Besides, the TGI with OVCAR-3 ovarian, in the assay on OVCAR-8 ovarian, in the assay with SF-268 CNS, in the assay with SK-MEL-28 melanoma, in the assay on SK-MEL-5 melanoma and in the assay on SK-OV-3 ovarian was over 100 µM throughout. Also, the TGI with SR leukemia, in the assay with U251 CNS and in the assay on UACC-62 melanoma was over 100 µM in each case.

Take `CCCCC1(OC(=O)CCC(=O)O)CCC2(CCC(C)C(C/C=C(C)/C=C/C(O)C(C)/C=C/C(=O)O)O2)OC1CC/C(C)=C/C(=O)O` (stereo unspecified): the TGI with HCT-15 colon was determined as 12.4 µM; in the assay with HOP-92 NSCLC, 4.74 µM; in the assay with IGROV1 ovarian, 4.89 µM; in the assay with KM12 colon, 11.8 µM; in the assay with NCI-H226 lung, 6.1 µM; in the assay with NCI-H23 lung, 3.49 µM. Also, the TGI came to 11.2 µM in the assay on OVCAR-3 ovarian; 7.67 µM in the assay on OVCAR-8 ovarian; 7.22 µM in the assay with SF-268 CNS; 5.07 µM in the assay on SK-MEL-28 melanoma; 3.14 µM with SK-MEL-5 melanoma; 25.4 µM in the assay on SK-OV-3 ovarian. The results for the TGI with SR leukemia, in the assay with U251 CNS and in the assay on UACC-62 melanoma were over 48.7 µM, 15.6 µM and 2.62 µM, respectively.
